Assays:
H358 cells = assay: Anti-cell proliferation experiment of H358 cell 3D model (soft agar); format: cell-based; details: Homo sapiens, 336 h; NCI-H358, soft agar, 14 days co-incubation, Almar blue; read-out: Anti-proliferation inhibitory activity in H358 cell 3D model IC50
Experimental: RPMI1640 medium, fetal bovine serum, and penicillin/streptomycin antibiotics were purchased from Wisent, and low-melting agarose was purchased from Sigma. Almar blue reagent was purchased from Invitrogen. NCI-H358 cell line was purchased from Nanjing CoBioer Co., Ltd. Nivo multi-label analyzer (PerkinElmer).
H358 cells were seeded into a 96-well U-shaped plate. First, low-melting agarose was prepared into a 2% stock solution. Before use, the agarose stock solution was heated in a microwave oven to completely melt it, and then placed in a 42° C. water bath to keep the agarose in a liquid state. The gel was added to the serum-containing medium to prepare a gel with a concentration of 0.6% as the bottom layer gel, which was then dispensed into the 96-well U-shaped plate at 50 μL per well. After the bottom layer gel solidifies, 2% gel was added to the cell-containing medium to prepare a cell-containing top layer gel with a gel concentration of 0.4%. The cell density was […], and 75 μL was added to each well of the 96-well U-shaped plate with the bottom layer gel, resulting in a cell density of 3000 cells per well. […]
On the day of compound addition, 85 μL of liquid medium is added to the 96-well U-shaped plate with pre-seeded cells. […] The readings were taken using a multi-label analyzer. […]

[1] = system: p-ERK in DLD-1 cells (KRAS G13D mutation); assay: pERK expression levels in DLD-1 cells using HTRF; format: cell-based; details: Homo sapiens, 1.5 h compound incubation, read-out: Inhibitory activity against p-ERK in DLD-1 cells IC50
Experimental: The phosphorylation level of ERK protein in DLD-1 cells with KRAS G13D mutation was detected by the Homogeneous Time-Resolved Fluorescence (HTRF) method, and the IC50 and IC90 values of compounds are employed as indicators to evaluate the inhibitory activity of these compounds towards ERK phosphorylation within the RAS signaling pathway.
1) DLD-1 cells (50,000 cells/well) were seeded into a 96-well plate, and each well was filled with 90 μL of RPMI-1640 medium (10% fetal bovine serum), and then placed in a 37° C., 5% carbon dioxide incubator for overnight culture.
10 μL of DMSO-cell culture medium mixture were added to the solvent control and positive control, with a final DMSO concentration of 0.25%. The 96-well cell plate was then returned to the incubator for 1.5 h of culture.
4) The cell supernatant was removed, and 50 μL of 1× lysis buffer was immediately added, followed by shaking and incubation at room temperature for 30 min.
5) A pipette was used to blow and mix the solution evenly, and 16 μL of cell lysate was transferred from the 96-well plate to the HTRF 384-well detection plate.
6) 4 μL of pre-mixed antibody solution were added, the plate was sealed, and incubated at 4° C. The fluorescence emission intensities at 665 nm and 620 nm were detected using an HTRF plate reader. […]

KRAS (G12C) and SOS1 = molecular target: T1, KRAS (G12C) and SOS1 (Homo sapiens, UniProt Q07889); assay: KRAS (G12C) and SOS1 binding experiment (HTRF); details: SOS1 exchange domain (564-1049), 25° C. for 60 min, read-out: KRAS (G12C) and SOS1 binding inhibitory activity IC50
T1 sequence (Q07889 564-1049): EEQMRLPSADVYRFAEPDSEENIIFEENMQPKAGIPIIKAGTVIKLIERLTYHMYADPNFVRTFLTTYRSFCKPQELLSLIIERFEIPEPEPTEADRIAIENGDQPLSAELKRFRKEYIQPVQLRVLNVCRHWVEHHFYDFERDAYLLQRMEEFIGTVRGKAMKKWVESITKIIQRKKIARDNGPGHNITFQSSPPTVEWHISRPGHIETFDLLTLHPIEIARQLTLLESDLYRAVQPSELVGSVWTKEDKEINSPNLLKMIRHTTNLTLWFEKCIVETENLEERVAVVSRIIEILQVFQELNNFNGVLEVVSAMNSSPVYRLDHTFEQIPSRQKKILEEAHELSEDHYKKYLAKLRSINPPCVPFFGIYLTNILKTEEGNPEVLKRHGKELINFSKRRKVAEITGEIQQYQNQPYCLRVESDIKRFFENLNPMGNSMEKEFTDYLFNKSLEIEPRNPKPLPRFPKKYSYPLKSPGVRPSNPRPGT
Experimental: The multi-functional microplate reader Nivo5 was purchased from PerkinElmer.
Preparation method: 4-hydroxyethylpiperazine ethyl sulfonate (Hepes): 5 mM; sodium chloride (NaCl): 150 mM; ethylenediaminetetraacetic acid (EDTA): 10 mM, CO-630 (Igepal): 0.0025%, potassium fluoride (KF): 100 mM; dithiothreitol (DTT): 1 mM; and bovine serum albumin (BSA): 0.05%.
1) The test compound was diluted five-fold using DMSO with a multi-channel pipette until the 8th concentration was achieved, starting from 1 mM and ending at 0.064 μM.
2) The various gradients of the test compound were diluted with 1 buffer to form working solutions containing 2% DMSO. 5 μL of each working solution was then dispensed into the corresponding wells, with a concentration gradient ranging from 20 μM to 0.00128 nM. Duplicate well experiment was set up for each concentration. Following this, the plate was centrifuged at 1000 rpm for 1 min.
3) A mixed working solution containing KRAS (G12C) at a concentration of 200 nM and Mab Anti GST-Eu cryptate at a concentration of […] was prepared using 1× buffer. […]
4) A mixed working solution containing SOS1 at a concentration of 80 nM and Mab Anti 6HIS-XL665 at a concentration of […] was prepared using 1× buffer. […] After the reaction was completed, the HTRF was read using a multi-label analyzer. […]

## C=C[C@@H](Nc1nc(C)nc2cc(=O)n(C3(C(F)F)CC3)cc12)c1cccc(C(F)F)c1F [Compounds as shown in formula (I)]
H358 cells
  IC50: 91 nM
[1]
  IC50: 37 nM
KRAS (G12C) and SOS1
  IC50: 13 nM

From patent US20250230156A1, “CRYSTAL FORM OF ALLYL-CONTAINING METHYLPYRIDOPYRIMIDINE COMPOUND” (MEDSHINE DISCOVERY INC., priority 2022, published 2025)
